Here are results for 48 compounds from patent US20100298285A1, “Biclycloheteroaryl Compounds as P2x7 Modulators and Uses Thereof” (priority 2006, published 2010).

pIC50: −log10 of the molar value.

The subject of one assay is IL-1β release, THP-1 cells. Nature of the assay: IL-1β release assay in differentiated THP-1 cells stimulated with BzATP (Example 9). Type of assay: cell-based. The conditions noted are these: Homo sapiens; 0.1 μM compound ("*" symbols); differentiated THP-1 cells, 250 uM BzATP; read-out: IL-1β% Inhib. @ 0.3 or 0.1 μM. As to the method: THP-1 cells (ATCC Cat # 285-IF-100) are plated in 96 well plates at a concentration of 200,000 cells per well and allowed to differentiate in RPMI-1640 media (ATCC Cat # 30-2001) containing 10% FBS, 100 IU/mL penicillin, 100 ug/mL streptomycin, 100 ng/mL LPS and 100 ng/mL IFN-γ for 16 hours. Following differentiation, the cells are treated for an additional 2 hours in RPMI-1640 media containing 100 IU/mL penicillin, 100 ug/mL streptomycin and fresh LPS at 100 ng/mL. The cells are then pretreated for 30 minutes with the compound of interest at the appropriate concentration in RPMI media containing 100 IU/mL penicillin, 100 ug/mL streptomycin. Following the pretreatment 2′,3′-O-(4-benzoylbenzoyl)-adenosine 5′-triphosphate (Sigma Aldrich Cat # B6396) is added to a final concentration of 250 uM and the cells are incubated for an additional 45 minutes. 30 uL of cell supernatant is then collected and IL-1β levels determined via ELISA (R&D systems Cat. # HSLB50) according to manufacturer's recommendations using the Tecan Safire plate reader. Background adjusted IL-1β levels of drug treated and non-treated cells are used to calculate the percent inhibition.
The following compounds have been or can be prepared according to the synthetic methods described above. For the purpose of Table 1 below, activity of each compound, which can be determined using the IL-1β assay method described in Example 9, is expressed as follows: […]
The compounds set forth in Table 1 were tested for activity in a cellular model as described herein. Specifically, cells were pretreated with differing amounts of the compound under test and released IL-1β determined as in Example 9, above. Measurements were made and IC50 values, presented in Table 2, below, were determined by fitting the data to a four parameter logistic equation using GraphPad Prism software (GraphPad Software, Inc). The equation may be expressed by the following formula:
Y=Bottom+(Top−Bottom)/(1+10̂((Log EC50−X)*HillSlope))
Where X is the logarithm of concentration, Y is the response and Y starts at Bottom and goes to Top with a sigmoid shape.
Take `O=C(Cc1ccc(C(F)(F)F)cc1)Nc1c(Cl)ccc2c1CCN(S(=O)(=O)c1cc(Cl)ccc1F)C2` [Compound 3018]: the inhibition at 0.1 µM fell in the range of 0 to 25%.
Same read-out and setting: the result for `O=C(Cc1ccc(C(F)(F)F)cc1)Nc1c(Cl)ccc2c1CCN(S(=O)(=O)c1c(F)cccc1F)C2` [Compound 3009] reads 0 to 25%; that for `O=C(Cc1ccc(C(F)(F)F)cc1)Nc1c(Cl)ccc2c1CCN(S(=O)(=O)c1cccc(C(F)(F)F)c1)C2` [Compound 3032], 0 to 25%; that for `Cc1cccc(S(=O)(=O)N2CCc3c(ccc(Cl)c3NC(=O)Cc3ccc(C(F)(F)F)cc3)C2)c1` [Compound 3024], 0 to 25%.
Still for that read-out and setting: with `N#Cc1ccccc1S(=O)(=O)N1CCc2c(ccc(Cl)c2NC(=O)Cc2ccc(C(F)(F)F)cc2)C1` [Compound 3027] the figure was 0 to 25%.
Turning to `O=C(Cc1ccc(C(F)(F)F)cc1)Nc1c(Cl)ccc2c1CCN(S(=O)(=O)c1ccc(F)cc1)C2` [Compound 3004], the inhibition at 0.1 µM is 0 to 25%.
On the same count and under the same terms, with `CN(C)CCC(=O)N1CCc2c(cccc2NC(=O)Cc2ccc(C(F)(F)F)c(F)c2)C1` [Compound 3035] the figure was 0 to 25%; with `O=C(Cc1ccc(C(F)(F)F)cc1)Nc1c(Cl)ccc2c1CCN(S(=O)(=O)c1ccc(C(F)(F)F)cc1Cl)C2` [Compound 3021], 0 to 25%.

The same assay, now with this note: Homo sapiens; 0.3 μM compound ("+" symbols); differentiated THP-1 cells, 250 uM BzATP; read-out: IL-1β% Inhib. @ 0.3 or 0.1 μM.
Turning to `O=C(Cc1cccc(C(F)(F)F)c1F)Nc1c(Cl)ccc2c1CCN(C(=O)COCc1ccccc1)C2` [Compound 3160], the inhibition at 0.3 µM was 0 to 25%.
`O=C(Cc1ccc(C(F)(F)F)c(F)c1)Nc1c(Cl)ccc2c1CCN(C(=O)c1ccncc1)C2` [Compound 3126]: the inhibition at 0.3 µM lay in the range of 0 to 25%.
Same read-out and setting: with `O=C(Cc1ccc(C(F)(F)F)c(F)c1)Nc1cccc2c1CCN(C(=O)CC1CCCCC1)C2` [Compound 3042] the figure was not below 76%; with `Cc1nn(-c2ccccc2)nc1C(=O)N1CCc2c(ccc(Cl)c2NC(=O)Cc2ccc(C(F)(F)F)c(F)c2)C1` [Compound 3108], 0 to 25%.
On to `O=C(Cc1ccc(C(F)(F)F)c(F)c1)Nc1cccc2c1CCN(C(=O)C1CCOCC1)C2` [Compound 3038], for which the inhibition at 0.3 µM lay within 0 to 25%.
The same measure, in the same setting: with `Cc1ncccc1C(=O)N1CCc2c(cccc2NC(=O)Cc2ccc(C(F)(F)F)c(F)c2)C1` [Compound 3044] the figure was 0 to 25%; with `COc1ccc(C(=O)N2CCc3c(ccc(Cl)c3NC(=O)Cc3ccc(C(F)(F)F)c(F)c3)C2)cc1OC` [Compound 3129], 0 to 25%; with `O=C(Cc1ccc(C(F)(F)F)c(F)c1)Nc1c(Cl)ccc2c1CCN(C(=O)c1cc(F)c(F)cc1F)C2` [Compound 3078], 0 to 25%.
Turning to `Cc1nn(-c2ccccc2)nc1C(=O)N1CCc2c(ccc(Cl)c2NC(=O)Cc2cccc(C(F)(F)F)c2F)C1` [Compound 3172], the inhibition at 0.3 µM lay in the range of 0 to 25%.
On the same count and under the same terms, the result for `O=C(Cc1ccc(C(F)(F)F)c(F)c1)Nc1cccc2c1CCN(C(=O)C1COc3ccccc3O1)C2` (stereo not drawn) [Compound 3036] reads 0 to 25%.
On the same count and under the same terms, the result for `O=C(Cc1cccc(C(F)(F)F)c1F)Nc1c(Cl)ccc2c1CCN(C(=O)/C=C/c1ccccc1)C2` [Compound 3182] reads 0 to 25%.
`CC(C)(C)C(=O)N1CCc2c(ccc(Cl)c2NC(=O)Cc2ccc(C(F)(F)F)c(F)c2)C1` [Compound 3092]: the inhibition at 0.3 µM was not below 76%.
On the same count and under the same terms, the result for `O=C(Cc1ccc(C(F)(F)F)c(F)c1)Nc1c(Cl)ccc2c1CCN(C(=O)CCC1CCCC1)C2` [Compound 3075] reads 0 to 25%; that for `O=C(Cc1cccc(C(F)(F)F)c1F)Nc1c(Cl)ccc2c1CCN(C(=O)c1ccccc1)C2` [Compound 3137], 0 to 25%.
With `O=C(Cc1cccc(C(F)(F)F)c1F)Nc1c(Cl)ccc2c1CCN(C(=O)c1ccc(C(F)(F)F)cc1F)C2` [Compound 3169], the inhibition at 0.3 µM was in the range of 0 to 25%.
On the same count and under the same terms, the result for `CCC(O)CN1CCc2c(cccc2NC(=O)Cc2ccc(C(F)(F)F)c(F)c2)C1` (stereo not drawn) [Compound 3058, 2-(3-Fluoro-4-trifluoromethyl-phenyl)-N-[2-(2-hydroxy-butyl)-1,2,3,4-tetrahydro-isoquinolin-5-yl]-acetamide] reads 26 to 50%; that for `CC(Oc1ccccc1)C(=O)N1CCc2c(ccc(Cl)c2NC(=O)Cc2ccc(C(F)(F)F)c(F)c2)C1` (stereo not drawn) [Compound 3135], 26 to 50%; that for `O=C(Cc1ccc(C(F)(F)F)c(F)c1)Nc1c(Cl)ccc2c1CCN(C(=O)c1nccs1)C2` [Compound 3134], 26 to 50%.
Still for that read-out and setting: with `O=C(Cc1ccc(C(F)(F)F)c(F)c1)Nc1c(Cl)ccc2c1CCN(C(=O)c1ccc(Cl)c(Cl)c1)C2` [Compound 3086] the figure was 0 to 25%; with `O=C(Cc1cccc(C(F)(F)F)c1F)Nc1c(Cl)ccc2c1CCN(C(=O)c1ccc(-c3ccccc3)cc1)C2` [Compound 3142], 0 to 25%; with `O=C(Cc1cccc(C(F)(F)F)c1F)Nc1c(Cl)ccc2c1CCN(C(=O)c1ccccc1F)C2` [Compound 3178], 0 to 25%.
Still for that read-out and setting: the result for `Cc1ccccc1C(=O)N1CCc2c(ccc(Cl)c2NC(=O)Cc2cccc(C(F)(F)F)c2F)C1` [Compound 3176] reads 0 to 25%.
Consider `O=C(Cc1ccc(C(F)(F)F)c(F)c1)Nc1c(Cl)ccc2c1CCN(C(=O)C1CC1c1ccccc1)C2` (stereo not drawn) [Compound 3099], for which the inhibition at 0.3 µM was in the range of 0 to 25%.
Same read-out and setting: with `COc1ccccc1C(=O)N1CCc2c(ccc(Cl)c2NC(=O)Cc2ccc(C(F)(F)F)c(F)c2)C1` [Compound 3120] the figure was 0 to 25%.
`O=C(Cc1ccc(C(F)(F)F)c(F)c1)Nc1c(Cl)ccc2c1CCN(C(=O)/C=C/c1ccccc1)C2` [Compound 3118]: the inhibition at 0.3 µM was 26 to 50%.
Still for that read-out and setting: the result for `CN(C)c1ccc(C(=O)N2CCc3c(ccc(Cl)c3NC(=O)Cc3ccc(C(F)(F)F)c(F)c3)C2)cc1` [Compound 3096] reads 26 to 50%.
Still for that read-out and setting: with `O=C(Cc1ccc(C(F)(F)F)c(F)c1)Nc1c(Cl)ccc2c1CCN(C(=O)c1cccc(Cl)c1)C2` [Compound 3093] the figure was 0 to 25%; with `O=C(Cc1cccc(C(F)(F)F)c1F)Nc1c(Cl)ccc2c1CCN(C(=O)COc1ccc(Cl)cc1)C2` [Compound 3167], 26 to 50%; with `O=C(Cc1ccc(C(F)(F)F)c(F)c1)Nc1c(Cl)ccc2c1CCN(C(=O)c1ccc3ccccc3n1)C2` [Compound 3125], 26 to 50%.
Same read-out and setting: with `O=C(Cc1ccc(C(F)(F)F)c(F)c1)Nc1c(Cl)ccc2c1CCN(C(=O)COc1ccc(Cl)cc1)C2` [Compound 3104] the figure was 0 to 25%.
As to `Cc1cc(C(=O)N2CCc3c(ccc(Cl)c3NC(=O)Cc3ccc(C(F)(F)F)c(F)c3)C2)no1` [Compound 3116], the inhibition at 0.3 µM was in the range of 0 to 25%.
Still for that read-out and setting: with `O=C(Cc1ccc(C(F)(F)F)c(F)c1)Nc1c(Cl)ccc2c1CCN(C(=O)c1cccc3ccccc13)C2` [Compound 3121] the figure was 0 to 25%; with `O=C(Cc1cccc(C(F)(F)F)c1F)Nc1c(Cl)ccc2c1CCN(C(=O)CCC1CCCCC1)C2` [Compound 3194], 26 to 50%.

Still in this assay, the particulars now being: Homo sapiens; THP-1 cells, BzATP 250 uM, four parameter logistic fit.
In the case of `O=C(Cc1ccc(C(F)(F)F)c(F)c1)Nc1cccc2c1CCN(C(=O)CC1CCCCC1)C2` [Compound 3042], the pIC50 was 6.81.
On to `O=C(Cc1ccc(C(F)(F)F)c(F)c1)Nc1cccc2c1CCN(C(=O)C1CCOCC1)C2` [Compound 3038], for which the pIC50 was 6.37. This pIC50 is 0.44 log units lower than that of the compound before.
Still for that read-out and setting: the result for `Cc1ncccc1C(=O)N1CCc2c(cccc2NC(=O)Cc2ccc(C(F)(F)F)c(F)c2)C1` [Compound 3044] reads less than 6.00; that for `COc1ccc2c(c1NC(=O)Cc1ccc(C(F)(F)F)c(F)c1)CCN(C(=O)C1CC1)C2` [Compound 3475], 6.61; that for `COc1ccc(OC)c(S(=O)(=O)N2CCc3c(ccc(C)c3NC(=O)Cc3ccc(C(F)(F)F)c(F)c3)C2)c1` [Compound 3452], 7.55.
Still for that read-out and setting: with `O=C(Cc1ccc(C(F)(F)F)c(F)c1)Nc1cccc2c1CCN(C(=O)C1COc3ccccc3O1)C2` (stereo not drawn) [Compound 3036] the figure was less than 6.00; with `COc1ccc2c(c1NC(=O)Cc1ccc(C(F)(F)F)c(F)c1)CCN(C(=O)CC1(O)CCCC(C)(C)C1)C2` (stereo not drawn) [Compound 3478, 2-(3-Fluoro-4-trifluoromethyl-phenyl)-N-{2-[2-(1-hydroxy-3,3-dimethyl-cyclohexyl)-acetyl]-6-methoxy-1,2,3,4-tetrahydro-isoquinolin-5-yl}-acetamide], 6.72.
Regarding `Cc1ccc2c(c1NC(=O)Cc1ccc(C(F)(F)F)c(F)c1)CCN(C(=O)C1(C)CC1)C2` [Compound 3471], the negative-log IC50 (pIC50) is 6.58.
Same read-out and setting: the result for `CCC(O)CN1CCc2c(cccc2NC(=O)Cc2ccc(C(F)(F)F)c(F)c2)C1` (stereo not drawn) [Compound 3058, 2-(3-Fluoro-4-trifluoromethyl-phenyl)-N-[2-(2-hydroxy-butyl)-1,2,3,4-tetrahydro-isoquinolin-5-yl]-acetamide] reads 6.47.
Consider `Cc1ccc2c(c1NC(=O)Cc1ccc(C(F)(F)F)c(F)c1)CCN(C(=O)C1CCC1)C2` [Compound 3473], for which the negative-log IC50 (pIC50) is 7.62.
Same read-out and setting: the result for `Cc1ccc2c(c1NC(=O)Cc1ccc(C(F)(F)F)c(F)c1)CCN(C(=O)[C@H]1CCN1)C2` [Compound 3480] reads 7.13.
Take `COc1ccc2c(c1NC(=O)Cc1ccc(C(F)(F)F)c(F)c1)CCN(C(=O)C(C)(C)O)C2` [Compound 3481]: the pIC50 is 6.03.
Same read-out and setting: the result for `CN(C)CCC(=O)N1CCc2c(cccc2NC(=O)Cc2ccc(C(F)(F)F)c(F)c2)C1` [Compound 3035] reads 6.01.

As usually defined, the pIC50 is the IC50 on a negative log10 scale, so that one unit is a factor of ten. High values mean a small IC50, low ones a large IC50.
